Blank lines part the entries; values can stand above or below the substance they belong to.
How the values were obtained:
[1] = known in the art; cited from earlier work
skin = test: Surfactant skin penetration at 5 depths after forearm controlled application technique (FCAT), liquid chromatography and mass spectrometry; type: in vivo
Text: One way to test the potential mildness of a surfactant is by looking at how it interacts with the skin. One type of interaction with the skin is skin penetration. Skin penetration looks at how much of the surfactant will penetrate into the skin. It is believed that the more the surfactant penetrates into the skin, the less mild the composition. Originally, this was believed to be largely driven by the structure of the surfactant, itself. Now, it is believed that the phase behavior associated with the surfactant can also have an impact on the penetration of the surfactant, and thus, its mildness. One surfactant reviewed for mildness is sodium trideceth-2 sulfate. […] In FIG. 1, the lighter gray (left hand column) is sodium trideceth-2 sulfate deposited on skin in a vesicle form, specifically a lamellar form as part of Composition F (below), while the darker gray (right hand column) is sodium trideceth-2 sulfate deposited in a micellar form as part of Composition E (below). The compositions were applied in accordance with a forearm controlled application technique (FCAT), a description of which is found in Ertel et al., “A forearm controlled application technique for estimating the relative mildness of personal cleansing products,” J. Soc. Cosmet. […] The levels of the target materials on the skin are then measured with a combination of liquid chromatography and mass spectrometry.

Substance: cocamide monoethanolamine
- HLB value [1]: 16.8

- penetration of the surfactant into skin (concentration at depth 01 to depth 05) (skin; in vivo): A similar result was seen
Substance: cocamidopropyl betaine

Substance: sodium trideceth-2 sulfate
- penetration of the surfactant into skin (concentration at depth 01 to depth 05) (skin; deposited from micellar composition (Composition E) versus lamellar composition (Composition F), FCAT, FIGS. 1-3): penetrates the skin at a greater concentration at all 5 depths measured
